The source of these data is US20110195896A1 (CASE WESTERN RESERVE UNIVERSITY, priority 2008, published 2011).

The target of assay [1] is IGF Type I receptor (IGFR) (Homo sapiens, UniProt P08069). Nature of the assay: Competitive receptor-binding assay, epitope-tagged IGF Type I receptor. Here is the method:
(§1) Relative activity may be defined by comparison of the dissociation constants (Keq) governing the hormone-receptor binding reaction.
(§2) Receptor-Binding Assays. […] This assay employs the purified epitope-tagged receptor (IR-A, IR-B, or IGFR) using a microtiter-plate antibody-capture assay as known in the art. The epitope tag consists of three tandem repeats of the FLAG epitope. Microtiter strip plates (Nunc Maxisorb) were incubated overnight at 4° C. with anti-FLAG IgG (100 μl/well of […] in phosphate-buffered saline). Binding data were analyzed by a single-site heterologous competition binding model. A corresponding microtiter plate antibody assay using the epitope-tagged IGF Type I receptor was employed to assess cross-binding of analogues to this homologous receptor.

The target in the next assay is insulin receptor (Homo sapiens, UniProt P06213). The note with it: background; cited from earlier work.
Assay [2] deals with insulin receptor isoform B (IR-B, HIRB) (Homo sapiens, UniProt P06213). Nature of the assay: Competitive receptor-binding assay, 125I-insulin tracer, epitope-tagged receptor antibody capture (IR-B). The conditions noted are these: normalized to 100% = binding affinity of wild-type human insulin for IR-A. Here is the method:
as §1, §2

In assay [3] the target is insulin receptor isoform A (IR-A, HIRA) (Homo sapiens, UniProt P06213). As to the kind of experiment: Competitive receptor-binding assay, 125I-insulin tracer, epitope-tagged receptor antibody capture (IR-A). The note with it: ratio of IR-A to IR-B binding. On the procedure: as §1, §2

Entries after “also recorded” stand apart in the source; their conditions may differ. Read-outs that look alike come from different tables or passages of the source.

Chain of IGF Type I receptor (IGFR) (P08069 31-736 limits assumed): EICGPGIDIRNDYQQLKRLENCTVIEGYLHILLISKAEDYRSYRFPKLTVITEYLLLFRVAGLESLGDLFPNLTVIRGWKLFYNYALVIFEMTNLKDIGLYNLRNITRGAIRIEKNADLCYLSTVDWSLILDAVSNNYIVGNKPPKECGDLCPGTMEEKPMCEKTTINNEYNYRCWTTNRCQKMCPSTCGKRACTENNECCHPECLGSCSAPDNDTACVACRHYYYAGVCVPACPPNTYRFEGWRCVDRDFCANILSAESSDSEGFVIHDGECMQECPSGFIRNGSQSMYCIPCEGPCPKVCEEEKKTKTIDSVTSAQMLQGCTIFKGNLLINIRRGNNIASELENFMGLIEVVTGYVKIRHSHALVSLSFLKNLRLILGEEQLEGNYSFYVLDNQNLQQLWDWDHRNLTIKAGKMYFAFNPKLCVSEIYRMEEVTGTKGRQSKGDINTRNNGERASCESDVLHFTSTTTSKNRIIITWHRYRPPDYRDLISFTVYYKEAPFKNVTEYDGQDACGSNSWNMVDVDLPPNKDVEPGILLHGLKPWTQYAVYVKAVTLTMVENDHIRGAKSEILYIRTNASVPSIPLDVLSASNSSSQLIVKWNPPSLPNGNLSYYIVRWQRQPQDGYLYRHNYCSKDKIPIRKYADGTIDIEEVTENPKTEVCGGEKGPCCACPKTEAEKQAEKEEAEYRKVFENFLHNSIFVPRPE
Chain of IGF Type I receptor (IGFR) (P08069 741-1367 partner limits assumed): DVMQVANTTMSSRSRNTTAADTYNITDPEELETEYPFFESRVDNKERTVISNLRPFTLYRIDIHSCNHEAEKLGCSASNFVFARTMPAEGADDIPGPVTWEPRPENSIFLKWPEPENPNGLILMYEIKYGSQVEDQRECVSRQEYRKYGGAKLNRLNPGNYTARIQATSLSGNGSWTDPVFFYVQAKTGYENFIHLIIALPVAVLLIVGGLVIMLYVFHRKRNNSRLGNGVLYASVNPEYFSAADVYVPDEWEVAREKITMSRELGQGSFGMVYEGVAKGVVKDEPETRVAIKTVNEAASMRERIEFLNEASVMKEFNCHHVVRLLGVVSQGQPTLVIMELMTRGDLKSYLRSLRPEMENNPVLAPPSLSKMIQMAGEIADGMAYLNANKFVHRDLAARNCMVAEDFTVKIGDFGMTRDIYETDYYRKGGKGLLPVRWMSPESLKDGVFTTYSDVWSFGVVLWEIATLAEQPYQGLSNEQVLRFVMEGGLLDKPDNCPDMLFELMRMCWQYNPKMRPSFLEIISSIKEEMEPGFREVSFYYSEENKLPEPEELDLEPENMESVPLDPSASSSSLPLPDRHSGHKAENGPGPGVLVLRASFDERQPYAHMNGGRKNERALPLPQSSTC

For the compound Lantus ®, the “IGFR Relative Affinity” value in assay [1] (absolute number relative to IGF-1 (=1)) is reported as 0.015; in assay [1] (absolute number relative to unmodified human insulin (=1)), 2-3. Moreover, in assay [1] (read-out: IGFR Kd), the Kd is 3.14 ± 0.44 nM.
Take insulin-like growth factor II [IGF-II]: the “affinity for either IR isoform relative to human insulin” value with insulin receptor was below 20%. The “RELATIVE AFFINITY INSULIN RECEPTOR Isoform B” value in assay [2] is on record as 4%. In assay [3], the “selectivity / preference for IR-A relative to IR-B” value was “between fourfold and tenfold; also recorded: greater than twofold preference for IR-A”.
Turning to `CC[C@H](C)[C@@H]1NC(=O)CNC(=O)[C@H](CCCNC(=N)N)NC(=O)[C@H](CCCNC(=N)N)NC(=O)[C@@H]2CCCN2C(=O)CNC(=O)CNC(=O)CNC(=O)[C@H]([C@@H](C)O)NC(=O)[C@@H]2CCCN2C(=O)[C@H](CC(=O)O)NC(=O)[C@H]([C@@H](C)O)NC(=O)[C@H](Cc2ccc(O)cc2)NC(=O)[C@H](Cc2ccccc2)NC(=O)[C@H](Cc2ccccc2)NC(=O)CNC(=O)[C@H](CCCNC(=N)N)NC(=O)[C@H](CCC(=O)O)NC(=O)CNC(=O)[C@@H]2CSSC[C@@H](C(=O)N[C@@H](CC(N)=O)C(=O)O)NC(=O)[C@H](Cc3ccc(O)cc3)NC(=O)[C@H](CC(N)=O)NC(=O)[C@H](CCC(=O)O)NC(=O)[C@H](CC(C)C)NC(=O)[C@H](CCC(N)=O)NC(=O)[C@H](Cc3ccc(O)cc3)NC(=O)[C@H](CC(C)C)NC(=O)[C@H](CO)NC(=O)[C@@H]3CSSC[C@H](NC(=O)[C@H](CCC(N)=O)NC(=O)[C@H](CCC(=O)O)NC(=O)[C@H](C(C)C)NC1=O)C(=O)N[C@@H](CSSC[C@H](NC(=O)[C@H](CC(C)C)NC(=O)[C@H](Cc1c[nH]cn1)NC(=O)[C@H](CCC(N)=O)NC(=O)[C@H](CC(N)=O)NC(=O)[C@@H](NC(=O)[C@@H](N)Cc1ccccc1)C(C)C)C(=O)NCC(=O)N[C@@H](CO)C(=O)N[C@@H](Cc1c[nH]cn1)C(=O)N[C@@H](CC(C)C)C(=O)N[C@@H](C(C)C)C(=O)N[C@@H](CCC(=O)O)C(=O)N[C@@H](C)C(=O)N[C@@H](CC(C)C)C(=O)N[C@@H](Cc1ccc(O)cc1)C(=O)N[C@@H](CC(C)C)C(=O)N[C@@H](C(C)C)C(=O)N2)C(=O)N[C@@H](Cc1c[nH]cn1)C(=O)N[C@@H](CO)C(=O)N[C@@H]([C@@H](C)CC)C(=O)N3` [[His^A8, Asp^B28, Pro^B29]-SCI], the Kd in assay [1] is 27.6 ± 1.18 nM.

In general, Kd refers to the concentration at which binding is half-saturated.
